Test results taken from patent US20250129109A1.

Experiments:
[1] = system: human gingival fibroblast cells (HGF-1); experiment: Cell cytotoxic test, human gingival fibroblast cells; details: HGF-1 cells; IC50 as silver concentration
[2] = system: stem cells from human exfoliated deciduous teeth (SHED1); experiment: Cell cytotoxic test, stem cells from human exfoliated deciduous teeth; details: IC50 as silver concentration

## C1N2CN3CN1CP(C2)C3.C1N2CN3CN1CP(C2)C3.[Ag+].[F-] [SCF, [Ag(1,3,5-triaza-7-phosphaadamantane)2]F]
[1]
  IC50 against HGF-1 (cell cytotoxicity): 43.98±12.80 ppm
[2]
  IC50 against SHED1 (cell cytotoxicity): 34.54±5.09 ppm
